Reference: US12378518B2, “Differentiation induction from human pluripotent stem cells into hypothalamic neurons” (National University Corporation Nagoya University, priority 2016, dated 2025)
Entries after “also recorded” stand apart in the source; their conditions may differ. Ends that are not written are not given here.

Legend:
Assay type in all cases: cell-based
CRH-R1 = target: T1, CRH-R1 (Homo sapiens, UniProt P34998); experiment: ACTH suppression test using a CRH-R1 inhibitor; conditions: CRH-R1 inhibitor 10^−5 M added at the time of stimulation with CRH addition
T1 construct: it was confirmed, by analysis by the fluorescent antibody method, that ACTH positive cells were CRH-R1 positive; endogenous in cells; host or cells: pituitary tissue (ACTH-positive cells) differentiated from human iPS cells, 201B7 strain
T1 sequence (P34998 24-415): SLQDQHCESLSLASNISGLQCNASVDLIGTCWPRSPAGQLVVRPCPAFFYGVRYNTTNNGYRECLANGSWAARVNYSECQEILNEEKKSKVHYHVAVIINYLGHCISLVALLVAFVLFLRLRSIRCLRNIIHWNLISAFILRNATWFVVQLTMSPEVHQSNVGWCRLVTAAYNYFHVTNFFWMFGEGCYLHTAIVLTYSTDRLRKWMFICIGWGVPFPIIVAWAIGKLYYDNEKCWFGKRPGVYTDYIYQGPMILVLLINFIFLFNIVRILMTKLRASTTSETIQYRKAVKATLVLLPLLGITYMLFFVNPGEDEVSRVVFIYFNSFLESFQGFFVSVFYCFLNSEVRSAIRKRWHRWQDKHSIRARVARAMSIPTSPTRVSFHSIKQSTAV
Experimental: (§1) Human iPS cells (201B7 strain) were cultured under conditions (see column A.2) that were effective for simultaneous maturation of hypothalamus and pituitary. Pituitary tissue and hypothalamic tissue were observed on Day 60 of culture, and ACTH neurons were detected in pituitary tissue. In addition, the amount of ACTH secreted from pituitary tissue was increased by long-term culture (FIG. 19), and it was confirmed that the maturation of pituitary tissue had progressed with the lapse of culture time.
To further evaluate the function of pituitary tissue obtained by culture under the conditions in (1), an ACTH suppression test using a CRH-R1 inhibitor (Antalarmin, NBI2719) was performed (right in FIG. 23). A CRH-R1 inhibitor was added at a dose of 10^−5 M (test group) at the time of stimulation with CRH addition, and the amount of ACTH secreted was compared with that when no CRH-R1 inhibitor was added (control group). As a result of the test, the secretion of ACTH was suppressed by the CRH-R1 inhibitor (left and center in FIG. 23).

human ES cells (KhES-1) = experiment: Differentiation induction of human ES cells by SFEBq method, analysed by fluorescent antibody method; conditions: Day 30 of culture
Source text: Next, it was examined whether the method can be applied also to human ES cells. Human ES cells (KhES-1) were subjected to maintenance culture by a conventional method on MEF and then used. To monitor differentiation induction into a hypothalamic tissue, KhES-1 wherein a Venus cDNA has been knocked-in into the gene of Rx which is a hypothalamic nerve marker was used. To differentiate human ES cells by Serum-Free Embryonic Body quick method (SFEBq method), human ES cells were dispersed to single cells using an enzyme by the method of Nakano et al. (Cell Stem Cell. 2012 Jun. 14; 10 (6): 771-85), and reaggregated using a low cell adhesive V-bottom 96-well plate (Sumitomo Bakelite Co., Ltd.). Ten thousand (10,000) cells were seeded per well and cultured in a gfCDM differentiation medium at 37° C. under 5% CO2. With the day of seeding defined as Day 0 of differentiation culture, 20 μM Y-27632 (ROCK inhibitor: cell death suppressor at the time of dispersion: Watanabe et al. (Nat Biotechnol. 2007 June; 25 (6): 681-6. Epub 2007 May 27.)) was added from Day 0 to Day 3, and, on and after Day 3 of culture, a half of the medium was exchanged with a differentiation medium free from Y-27632 at a frequency of once every 3 days. Based on the thought that no aggregate was formed due to nutritional deficiency, a small amount of a serum alternative KSR was added to the gfCDM to verify the effect. Specifically, the SFEBq method was performed by mixing 2%, 5%, 10%, and 20% KSR in the gfCDM medium. On and after Day 18, the oxygen partial pressure during culture was set to 40%. The differentiation of the tissue was analyzed by a fluorescent antibody method. Based on the thought that the positional shift to the telencephalon was caused by various growth factors included in KSR, the addition of a bone morphogenetic protein signal transduction pathway activating substance was decided. Specifically, differentiation induction was attempted under the following conditions. […]

[1] = test system: AVP neurons induced from human ES cells (KhES-1); experiment: KCl stimulation test of induced AVP neurons (AVP hormone by RIA method); conditions: isotonic solution containing 0.1% potassium chloride for 30 minutes; cells on Day 180 of culture
Source text: As a result of continuing suspension culture under the dorsal hypothalamus induction conditions, the expression of Otp and Brn2 (generally, Otp and Brn2 positive hypothalamus is thought to be in the precursor state of AVP neurons) was confirmed on Day 60 of culture (FIG. 6), and a small number of AVP-positive cells were observed on Day 103 of culture (FIG. 7). In order to improve the induction efficiency, the incorporation of dissociation culture, which is considered to be advantageous in neurogenesis, was decided. Specifically, differentiation induction was attempted under the following conditions. Cell aggregates were dispersed, and cells were seeded at 2×10^4 to 40×10^4 cells/cm^2 on glass plates coated with Laminin, Poly-D-Lysine and Matrigel, respectively, and subjected to plane culture in media obtained by adding NT3, BDNF, CNTF, and FBS, respectively, to a DFNB medium. Medium exchange was carried out at a frequency of once every 3 days.
As a result of differentiation induction under the above conditions, the appearance of AVP neurons was confirmed on Day 150 of culture (FIG. 8). […] First, the medium after used for cell culture for 3 days was recovered, and the AVP hormone in the medium was measured by RIA method. […]

[2] = test system: pituitary tissue (ACTH neurons) from human iPS cells (201B7 strain); experiment: ACTH stimulation test using CRH; conditions: CRH added at 5 μg/ml; pituitary tissue from human iPS cells (201B7)
Experimental: as §1
In order to evaluate the function of pituitary tissue obtained by culture under the conditions in (1), an ACTH stimulation test using CRH (right in FIG. 21) was performed. The test method was in accordance with the previously reported method (Ozone C et al., Functional anterior pituitary generated in self-organizing culture of human embryonic stem cells. Nat Commun. 2016 Jan. 14; 7: 10351.) (CRH was added at 5 μg/ml). […] In addition, it was confirmed, by analysis by the fluorescent antibody method, that ACTH positive cells were CRH-R1 positive (center in FIG. 21).

[3] = SAG 0.5 μM with BMP signal activating substance 1.5 to 2.0 nM from Day 6

With CCCCN(CC)c1nc(C)nc2c1c(C)c(C)n2-c1c(C)cc(C)cc1C [Antalarmin] the “amount of ACTH secreted vs control group without CRH-R1 inhibitor” value (CRH-R1) was “suppressed”.

With CN[C@H]1CC[C@H](N(Cc2cccc(-c3ccncc3)c2)C(=O)c2sc3ccccc3c2Cl)CC1 [SAG] the “differentiation efficiency of hypothalamic precursor cells” value (human ES cells (KhES-1); [3]) was “exceeded 80%” and the “marker expression of cell aggregates” value (human ES cells (KhES-1); [3]) was “co-positive for Rx and Pax6 and Chx10 negative”.

[Cl-].[K+] [potassium chloride] was tested, and the “response of AVP neurons (AVP hormone secretion) to stimulation” value [1] was “responded well”.

“CRH: corticotropin releasing hormone, added at 5 μg/ml in the ACTH stimulation test (SEEPPISLDLTFHLLREVLEMARAEQLAQQAHSNRKLMEII; ends and bridges not checked; UniProt P06850 154-194, looked up)” was tested, and the “ACTH secretion in response to CRH” value [2] was “ACTH was secreted in response to CRH”.

B1: BMP4: bone morphogenetic protein signal transduction pathway activating substance; a known cytokine (protein, UniProt P12644 293-408, looked up)
Bone morphogenetic protein 4: SPKHHSQRARKKNKNCRRHSLYVDFSDVGWNDWIVAPPGYQAFYCHGDCPFPLADHLNSTNHAIVQTLVNSVNSSIPKACCVPTELSAISMLYLDEYDKVVLKNYQEMVVEGCGCR
With B1 the marker expression (human ES cells (KhES-1); about 3.0 nM from Day 6, KSR-containing gfCDM) was “Rx as a hypothalamic marker and Pax6 as a dorsal marker became co-positive; also recorded: the retinal marker Chx10 also became positive”.
